In ChEMBL document CHEMBL3286309, “4,5-Di-substituted benzyl-imidazol-2-substituted amines as the structure template for the design and synthesis of reversal agents against P-gp-mediated multidrug resistance breast cancer cells” (Eur J Med Chem, 2014) one finds IC50 data, which are given here for three compounds.

Assay [1] in a line: Cytotoxicity against human MDA435/LCC6MDR cells after 5 days by MTS assay. To be noted: 120 h. The assay is classed as functional, cell-based.
Assay [2] can be described thus: Cytotoxicity against human MDA435/LCC6 cells after 5 days by MTS assay. In kind it is functional, cell-based. The note with it: MDA-435/LCC6, 120 h.
A further assay has as its system L929. Put plainly: Cytotoxicity against mouse L929 cells after 3 days by MTS assay. The assay is classed as cell-based. To be noted: L929, 72 h. A general note: Tetrazolium assays rely on reduction of a dye to a coloured formazan, in cell work by metabolically active cells.
Assay [3] in a line: Cytotoxicity against human MDA435/LCC6MDR cells after 3 days by MTS assay. In kind it is ADME, cell-based. To be noted: 72 h.
A short description of assay [4]: Cytotoxicity against human MDA435/LCC6 cells after 3 days by MTS assay. In kind it is cell-based. To be noted: MDA-435/LCC6, 72 h.

Turning to `CC(=O)O[C@H]1C(=O)[C@@]2(C)[C@H]([C@H](OC(=O)c3ccccc3)[C@]3(O)C[C@H](OC(=O)[C@H](O)[C@@H](NC(=O)c4ccccc4)c4ccccc4)C(C)=C1C3(C)C)[C@]1(OC(C)=O)CO[C@@H]1C[C@@H]2O` [PACLITAXEL], the 50% inhibitory concentration (IC50) in assay [1] came out at 0.149 µM; in assay [2], 0.0026 µM.
`CCN(CC)c1ccc(Cc2c(Cc3ccc(OC)c(OC)c3)nc(NC(=O)c3cc(OC)c(OC)c(OC)c3)n2C)cc1`: the 50% inhibitory concentration (IC50) in the assay on L929 was 47.4 µM; in assay [3], 38.3 µM; in assay [4] it was 45.2 µM.
With `CCN(CC)c1ccc(Cc2c(Cc3ccc(OC)c(OC)c3)nc(N(C(=O)/C=C/c3cc(OC)c(OC)c(OC)c3)C(=O)/C=C/c3cc(OC)c(OC)c(OC)c3)n2C)cc1`, the IC50 turned out to be 18.2 µM in the assay with L929, 9.1 µM in assay [3] and 13.7 µM in assay [4].

By IC50 is commonly meant the concentration that inhibits the measured activity by half. A higher IC50 goes with lower potency.
